Results as given in patent US20240327397A1, “Pesticidally Active Fused Bicyclic Heteroaromatic Compounds” (SYNGENTA CROP PROTECTION AG, priority 2021, published 2024).

How the values were obtained:
Type in all cases: in vivo
[1] = test system: Frankliniella occidentalis (Western Flower Thrips); experiment: Example B5: Frankliniella occidentalis, feeding/contact activity, sunflower leaf discs; details: foliar, 168 h, application rate 200 ppm, population of mixed ages, 7 days after infestation
Procedure: Example B5: Frankliniella occidentalis (Western Flower Thrips). Feedinq/Contact Activity
Sunflower leaf discs were placed on agar in 24-well microtiter plates and sprayed with aqueous test solutions prepared from 10'000 DMSO stock solutions. After drying the leaf discs were infested with a Frankliniella population of mixed ages. The samples were assessed for mortality 7 days after infestation.

[2] = test system: Diabrotica Balteata (Corn Root Worm); experiment: Example B2: Diabrotica balteata, sprayed maize sprouts on agar, L2 larvae; details: 96 h, application rate 200 ppm, 4 days after infestation, versus untreated, read-out: effect in at least one of the two categories (mortality or growth inhibition)
Procedure: Example B2: Diabrotica Balteata (Corn Root Worm)
Maize sprouts placed onto an agar layer in 24-well microtiter plates were treated with aqueous test solutions prepared from 10'000 ppm DMSO stock solutions by spraying. After drying, the plates were infested with L2 larvae (6 to 10 per well). The samples were assessed for mortality and growth inhibition in comparison to untreated samples 4 days after infestation.

[3] = test system: Chilo suppressalis (Striped Rice Stemborer); experiment: Example B1: Chilo suppressalis, artificial diet in 24-well plates, L2 larvae; details: 144 h, application rate 200 ppm, 6 days after infestation, versus untreated, read-out: control (at least one of mortality, anti-feedant effect, growth inhibition)
Procedure: Example B1: Chilo suppressalis (Striped Rice Stemborer)
24-well microtiter plates with artificial diet were treated with aqueous test solutions prepared from 10'000 ppm DMSO stock solutions by pipetting. After drying, the plates were infested with L2 larvae (6-8 per well). The samples were assessed for mortality, anti-feeding effect, and growth inhibition in comparison to untreated samples 6 days after infestation. Control of Chilo suppressalis by a test sample is given when at least one of the categories mortality, anti-feedant effect, and growth inhibition is higher than the untreated sample.

[4] = test system: Plutella xylostella (Diamond Back Moth); experiment: Example B3: Plutella xylostella, artificial diet in 24-well plates, eggs; details: 192 h, application rate 200 ppm, 8 days after infestation, versus untreated, read-out: effect in at least one of the two categories (mortality or growth inhibition)
Procedure: Example B3: Plutella xylostella (Diamond Back Moth)
24-well microtiter plates with artificial diet were treated with aqueous test solutions prepared from 10'000 ppm DMSO stock solutions by pipetting. After drying, Plutella eggs were pipetted through a plastic stencil onto a gel blotting paper and the plate was closed with it. The samples were assessed for mortality and growth inhibition in comparison to untreated samples 8 days after infestation.

[5] = test system: Myzus persicae (Green Peach Aphid); experiment: Example B7: Myzus persicae, intrinsic activity, sucrose solution under Parafilm; details: 120 h, test rate 12 ppm, 5 days after infestation
Description: Example B7: Myzus persicae (Green Peach Aphid). Intrinsic Activity
Test compounds prepared from 10'000 ppm DMSO stock solutions were applied by pipette into 24-well microtiter plates and mixed with sucrose solution. The plates were closed with a stretched Parafilm. A plastic stencil with 24 holes was placed onto the plate and infested pea seedlings were placed directly on the Parafilm. The infested plate was closed with a gel blotting paper and another plastic stencil and then turned upside down. The samples were assessed for mortality 5 days after infestation.

[6] = test system: Spodoptera littoralis (Eqyptian Cotton Leaf Worm); experiment: Example B4: Spodoptera littoralis, sprayed cotton leaf discs, L1 larvae; details: foliar, 72 h, application rate 200 ppm, 3 days after infestation, versus untreated, read-out: control (at least one of mortality, anti-feedant effect, growth inhibition)
Procedure: Example B4: Spodoptera littoralis (Eqyptian Cotton Leaf Worm)
Cotton leaf discs were placed onto agar in 24-well microtiter plates and sprayed with aqueous test solutions prepared from 10'000 ppm DMSO stock solutions. After drying the leaf discs were infested with five L1 larvae. The samples were assessed for mortality, anti-feeding effect, and growth inhibition in comparison to untreated samples 3 days after infestation. Control of Spodoptera littoralis by a test sample is given when at least one of the categories mortality, anti-feedant effect, and growth inhibition is higher than the untreated sample.

[7] = test system: Myzus persicae (Green Peach Aphid); experiment: Example B6: Myzus persicae, feeding/contact activity, sunflower leaf discs; details: foliar, 144 h, application rate 200 ppm, population of mixed ages, 6 days after infestation
Procedure: Example B6: Myzus persicae (Green Peach Aphid). Feedinq/Contact Activity
Sunflower leaf discs were placed onto agar in a 24-well microtiter plate and sprayed with aqueous test solutions prepared from 10'000 ppm DMSO stock solutions. After drying, the leaf discs were infested with an aphid population of mixed ages. The samples were assessed for mortality 6 days after infestation.

C[C@H](NC1=NS(C)(=O)=Nc2c(Br)cc(Br)cc21)c1ncnn1-c1ncccn1 (stereo partly drawn) [P1, 8,10-dibromo-3-methyl-3-oxo-N-[(1S)-1-(2-pyrimidin-2-yl-1,2,4-triazol-3-yl)ethyl]-3λ^6-thia-2,4-diazabicyclo[4.4.0]deca-1(6),2,4,7,9-pentaen-5-amine]
≥ 80%: mortality at 200 ppm [1] | percent effect (mortality or growth inhibition) at 200 ppm [2] | percent control (mortality, anti-feedant effect or growth inhibition) at 200 ppm [3] | percent effect (mortality or growth inhibition) at 200 ppm [4] | mortality at 12 ppm [5] | percent control (mortality, anti-feedant effect or growth inhibition) at 200 ppm [6]

C[C@H](NC1=NS(C)(=O)=Nc2c(Br)cc(Br)cc21)c1nccnc1-c1cnccn1 (stereo partly drawn) [P10, 8,10-dibromo-3-methyl-3-oxo-N-[(1S)-1-(3-pyrazin-2-ylpyrazin-2-yl)ethyl]-3λ^6-thia-2,4-diazabicyclo[4.4.0]deca-1(6),2,4,7,9-pentaen-5-amine]
≥ 80%: mortality at 200 ppm [1] | percent effect (mortality or growth inhibition) at 200 ppm [2] | mortality at 200 ppm [7] | percent control (mortality, anti-feedant effect or growth inhibition) at 200 ppm [3] | percent effect (mortality or growth inhibition) at 200 ppm [4] | mortality at 12 ppm [5] | percent control (mortality, anti-feedant effect or growth inhibition) at 200 ppm [6]
